Key:
Assay in all cases: relative viability (nuclei count vs DMSO), 5 days (fraction); higher = more cells survive
PC-14 = system: PC-14
Summary of the method: (§1)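 One day after seeding in 1536-well plates, lung cancer cell lines were dosed by pin tool. Dosing was either single-drug or a fixed anchor-drug dose plus five library-drug doses (not always all listed) in √10 steps. After 5 days, nuclei were stained in one fix-and-stain step and counted on 4× images, and relative viability is the nuclei count of treated wells over that of vehicle wells, given as the median of duplicate plates.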

NCI-H2085 = system: NCI-H2085
Summary of the method: as §1

NCI-H322M = system: NCI-H322M
Summary of the method: as §1

NCI-H647 = system: NCI-H647
Summary of the method: as §1

NCI-H2087 = system: NCI-H2087
Summary of the method: as §1

NCI-H1944 = system: NCI-H1944
Summary of the method: as §1

LOU-NH91 = system: LOU-NH91
Summary of the method: as §1

NCI-H1648 = system: NCI-H1648
Summary of the method: as §1

ABC-1 = system: ABC-1
Summary of the method: as §1

201T = system: 201T
Summary of the method: as §1

NCI-H596 = system: NCI-H596
Summary of the method: as §1

HCC-44 = system: HCC-44
Summary of the method: as §1

NCI-H2170 = system: NCI-H2170
Summary of the method: as §1

PC-3 [JPC-3] = system: PC-3 [JPC-3]
Summary of the method: as §1

NCI-H1437 = system: NCI-H1437
Summary of the method: as §1

NCI-H1734 = system: NCI-H1734
Summary of the method: as §1

LK-2 = system: LK-2
Summary of the method: as §1

HCC-78 = system: HCC-78
Summary of the method: as §1

NCI-H1651 = system: NCI-H1651
Summary of the method: as §1

HCC-366 = system: HCC-366
Summary of the method: as §1

NCI-H2023 = system: NCI-H2023
Summary of the method: as §1

NCI-H2228 = system: NCI-H2228
Summary of the method: as §1

SK-LU-1 = system: SK-LU-1
Summary of the method: as §1

## Nc1cccc2c1CN(C1CCC(=O)NC1=O)C2=O (configuration not stated) [Lenalidomide] + NC(=O)Nc1cc(-c2cccc(F)c2)sc1C(=O)N[C@H]1CCCNC1 [AZD7762] (partner 0.2 µM)
PC-14; first compound 0.253 µM
  relative viability: 0.384
PC-14; first compound 0.8 µM
  relative viability: 0.297
PC-14; first compound 2.53 µM
  relative viability: 0.386
PC-14; first compound 8 µM
  relative viability: 0.427
NCI-H2085; first compound 0.253 µM
  relative viability: 0.991
NCI-H2085; first compound 0.8 µM
  relative viability: 1.02
NCI-H2085; first compound 2.53 µM
  relative viability: 0.982
NCI-H2085; first compound 8 µM
  relative viability: 0.919
NCI-H322M; first compound 0.253 µM
  relative viability: 0.543
NCI-H322M; first compound 0.8 µM
  relative viability: 0.55
NCI-H322M; first compound 2.53 µM
  relative viability: 0.596
NCI-H322M; first compound 8 µM
  relative viability: 0.442
NCI-H647; first compound 0.253 µM
  relative viability: 0.485
NCI-H647; first compound 0.8 µM
  relative viability: 0.401
NCI-H647; first compound 2.53 µM
  relative viability: 0.499
NCI-H647; first compound 8 µM
  relative viability: 0.498
NCI-H2087; first compound 0.253 µM
  relative viability: 1.29
NCI-H2087; first compound 2.53 µM
  relative viability: 1.29
NCI-H2087; first compound 8 µM
  relative viability: 1.23
NCI-H1944; first compound 0.253 µM
  relative viability: 0.545
NCI-H1944; first compound 2.53 µM
  relative viability: 0.709
NCI-H1944; first compound 8 µM
  relative viability: 0.386
LOU-NH91; first compound 0.253 µM
  relative viability: 0.781
LOU-NH91; first compound 0.8 µM
  relative viability: 0.702
LOU-NH91; first compound 2.53 µM
  relative viability: 0.766
LOU-NH91; first compound 8 µM
  relative viability: 0.647
NCI-H1648; first compound 0.253 µM
  relative viability: 0.591
NCI-H1648; first compound 2.53 µM
  relative viability: 0.626
NCI-H1648; first compound 8 µM
  relative viability: 0.689
ABC-1; first compound 0.253 µM
  relative viability: 0.791
ABC-1; first compound 0.8 µM
  relative viability: 0.59
ABC-1; first compound 2.53 µM
  relative viability: 0.929
ABC-1; first compound 8 µM
  relative viability: 0.856
201T; first compound 0.253 µM
  relative viability: 0.594
201T; first compound 0.8 µM
  relative viability: 0.848
201T; first compound 2.53 µM
  relative viability: 0.617
201T; first compound 8 µM
  relative viability: 0.529
NCI-H596; first compound 0.253 µM
  relative viability: 1.13
NCI-H596; first compound 0.8 µM
  relative viability: 1.09
NCI-H596; first compound 2.53 µM
  relative viability: 1.1
NCI-H596; first compound 8 µM
  relative viability: 1
HCC-44; first compound 0.253 µM
  relative viability: 0.97
HCC-44; first compound 0.8 µM
  relative viability: 0.836
HCC-44; first compound 2.53 µM
  relative viability: 0.999
HCC-44; first compound 8 µM
  relative viability: 1.14
NCI-H2170; first compound 0.253 µM
  relative viability: 0.861
NCI-H2170; first compound 0.8 µM
  relative viability: 0.703
NCI-H2170; first compound 2.53 µM
  relative viability: 0.976
NCI-H2170; first compound 8 µM
  relative viability: 0.739
PC-3 [JPC-3]; first compound 0.253 µM
  relative viability: 0.888
PC-3 [JPC-3]; first compound 0.8 µM
  relative viability: 0.467
PC-3 [JPC-3]; first compound 2.53 µM
  relative viability: 0.944
PC-3 [JPC-3]; first compound 8 µM
  relative viability: 0.667
NCI-H1437; first compound 0.253 µM
  relative viability: 1.16
NCI-H1437; first compound 0.8 µM
  relative viability: 1.23
NCI-H1437; first compound 2.53 µM
  relative viability: 1.17
NCI-H1437; first compound 8 µM
  relative viability: 1.19
NCI-H1734; first compound 0.253 µM
  relative viability: 0.586
NCI-H1734; first compound 0.8 µM
  relative viability: 0.597
NCI-H1734; first compound 2.53 µM
  relative viability: 0.618
NCI-H1734; first compound 8 µM
  relative viability: 0.494
LK-2; first compound 0.253 µM
  relative viability: 0.511
LK-2; first compound 0.8 µM
  relative viability: 0.366
LK-2; first compound 2.53 µM
  relative viability: 0.33
LK-2; first compound 8 µM
  relative viability: 0.206
HCC-78; first compound 0.253 µM
  relative viability: 0.767
HCC-78; first compound 0.8 µM
  relative viability: 0.537
HCC-78; first compound 2.53 µM
  relative viability: 0.617
HCC-78; first compound 8 µM
  relative viability: 0.417
NCI-H1651; first compound 0.253 µM
  relative viability: 0.506
NCI-H1651; first compound 0.8 µM
  relative viability: 0.436
NCI-H1651; first compound 2.53 µM
  relative viability: 0.568
NCI-H1651; first compound 8 µM
  relative viability: 0.44
HCC-366; first compound 0.253 µM
  relative viability: 0.258
HCC-366; first compound 0.8 µM
  relative viability: 0.268
HCC-366; first compound 2.53 µM
  relative viability: 0.371
HCC-366; first compound 8 µM
  relative viability: 0.335

## Nc1cccc2c1CN(C1CCC(=O)NC1=O)C2=O (configuration not stated) [Lenalidomide] + Nc1nc2[nH]cc(CCc3ccc(C(=O)N[C@@H](CCC(=O)O)C(=O)O)cc3)c2c(=O)[nH]1 [Pemetrexed] (partner 0.2 µM)
PC-14; first compound 0.253 µM
  relative viability: 0.126
PC-14; first compound 0.8 µM
  relative viability: 0.151
PC-14; first compound 2.53 µM
  relative viability: 0.139
PC-14; first compound 8 µM
  relative viability: 0.16
NCI-H2085; first compound 0.253 µM
  relative viability: 0.884
NCI-H2085; first compound 0.8 µM
  relative viability: 0.96
NCI-H2085; first compound 2.53 µM
  relative viability: 0.924
NCI-H2085; first compound 8 µM
  relative viability: 0.873
NCI-H322M; first compound 0.253 µM
  relative viability: 0.631
NCI-H322M; first compound 0.8 µM
  relative viability: 0.635
NCI-H322M; first compound 2.53 µM
  relative viability: 0.664
NCI-H322M; first compound 8 µM
  relative viability: 0.697
NCI-H647; first compound 0.253 µM
  relative viability: 0.173
NCI-H647; first compound 0.8 µM
  relative viability: 0.164
NCI-H647; first compound 2.53 µM
  relative viability: 0.178
NCI-H647; first compound 8 µM
  relative viability: 0.182
NCI-H2087; first compound 0.253 µM
  relative viability: 0.65
NCI-H2087; first compound 2.53 µM
  relative viability: 0.642
NCI-H2087; first compound 8 µM
  relative viability: 0.671
NCI-H1944; first compound 0.253 µM
  relative viability: 0.642
NCI-H1944; first compound 2.53 µM
  relative viability: 0.691
NCI-H1944; first compound 8 µM
  relative viability: 0.553
LOU-NH91; first compound 0.253 µM
  relative viability: 0.398
LOU-NH91; first compound 0.8 µM
  relative viability: 0.361
LOU-NH91; first compound 2.53 µM
  relative viability: 0.408
LOU-NH91; first compound 8 µM
  relative viability: 0.406
NCI-H1648; first compound 0.253 µM
  relative viability: 0.765
NCI-H1648; first compound 2.53 µM
  relative viability: 0.711
NCI-H1648; first compound 8 µM
  relative viability: 0.747
201T; first compound 0.253 µM
  relative viability: 0.33
201T; first compound 0.8 µM
  relative viability: 0.325
201T; first compound 2.53 µM
  relative viability: 0.322
201T; first compound 8 µM
  relative viability: 0.287
NCI-H596; first compound 0.253 µM
  relative viability: 0.519
NCI-H596; first compound 0.8 µM
  relative viability: 0.4
NCI-H596; first compound 2.53 µM
  relative viability: 0.538
NCI-H596; first compound 8 µM
  relative viability: 0.48
HCC-44; first compound 0.253 µM
  relative viability: 0.616
HCC-44; first compound 0.8 µM
  relative viability: 0.638
HCC-44; first compound 2.53 µM
  relative viability: 0.631
HCC-44; first compound 8 µM
  relative viability: 0.762
NCI-H2170; first compound 0.253 µM
  relative viability: 0.279
NCI-H2170; first compound 0.8 µM
  relative viability: 0.282
NCI-H2170; first compound 2.53 µM
  relative viability: 0.259
NCI-H2170; first compound 8 µM
  relative viability: 0.27
PC-3 [JPC-3]; first compound 0.253 µM
  relative viability: 1.2
PC-3 [JPC-3]; first compound 0.8 µM
  relative viability: 0.755
PC-3 [JPC-3]; first compound 2.53 µM
  relative viability: 1.21
PC-3 [JPC-3]; first compound 8 µM
  relative viability: 1.08
NCI-H2023; first compound 0.253 µM
  relative viability: 0.259
NCI-H2023; first compound 0.8 µM
  relative viability: 0.235
NCI-H2023; first compound 2.53 µM
  relative viability: 0.246
NCI-H2023; first compound 8 µM
  relative viability: 0.256
NCI-H1437; first compound 0.253 µM
  relative viability: 0.294
NCI-H1437; first compound 0.8 µM
  relative viability: 0.33
NCI-H1437; first compound 2.53 µM
  relative viability: 0.327
NCI-H1437; first compound 8 µM
  relative viability: 0.323
NCI-H1734; first compound 0.253 µM
  relative viability: 0.465
NCI-H1734; first compound 0.8 µM
  relative viability: 0.465
NCI-H1734; first compound 2.53 µM
  relative viability: 0.433
NCI-H1734; first compound 8 µM
  relative viability: 0.479
LK-2; first compound 0.253 µM
  relative viability: 0.301
LK-2; first compound 0.8 µM
  relative viability: 0.167
LK-2; first compound 2.53 µM
  relative viability: 0.227
LK-2; first compound 8 µM
  relative viability: 0.175
HCC-78; first compound 0.253 µM
  relative viability: 0.878
HCC-78; first compound 0.8 µM
  relative viability: 0.936
HCC-78; first compound 2.53 µM
  relative viability: 0.886
HCC-78; first compound 8 µM
  relative viability: 0.937
NCI-H2228; first compound 0.253 µM
  relative viability: 0.345
NCI-H2228; first compound 0.8 µM
  relative viability: 0.345
NCI-H2228; first compound 2.53 µM
  relative viability: 0.358
NCI-H2228; first compound 8 µM
  relative viability: 0.358
SK-LU-1; first compound 0.253 µM
  relative viability: 1.04
SK-LU-1; first compound 0.8 µM
  relative viability: 1.07
SK-LU-1; first compound 2.53 µM
  relative viability: 1.12
SK-LU-1; first compound 8 µM
  relative viability: 1.11
NCI-H1651; first compound 0.253 µM
  relative viability: 0.608
NCI-H1651; first compound 0.8 µM
  relative viability: 0.497
NCI-H1651; first compound 2.53 µM
  relative viability: 0.586
NCI-H1651; first compound 8 µM
  relative viability: 0.582
HCC-366; first compound 0.253 µM
  relative viability: 0.161
HCC-366; first compound 0.8 µM
  relative viability: 0.123
HCC-366; first compound 2.53 µM
  relative viability: 0.206
HCC-366; first compound 8 µM
  relative viability: 0.264

Reference: the supplement of paper PMC10307832
